# Where two headings read alike, the source gives them in different places.
# Tested on: Batrachochytrium dendrobatidis Bd-GPL strain JEL404
# Conditions: slope of growth, positive = inhibition, negative = no inhibition
compound,measurement,setting,value
"CC[C@H](C)[C@H](NC(=O)[C@H](CCCCN)NC(=O)[C@H](CCC(=O)O)NC(=O)[C@H](CCCCN)NC(=O)[C@H](CO)NC(=O)[C@H](CCCCN)NC(=O)[C@H](CCCNC(=N)N)NC(=O)[C@H](Cc1ccccc1)NC(=O)[C@H](Cc1ccccc1)NC(=O)[C@H](CC(=O)O)NC(=O)CNC(=O)[C@H](CC(C)C)NC(=O)[C@@H](N)CC(C)C)C(=O)NCC(=O)N[C@@H](CCCCN)C(=O)N[C@@H](CCC(=O)O)C(=O)N[C@@H](Cc1ccccc1)C(=O)N[C@@H](CCCCN)C(=O)N[C@@H](CCCNC(=N)N)C(=O)N[C@H](C(=O)N[C@H](C(=O)N[C@@H](CCC(N)=O)C(=O)N[C@@H](CCCNC(=N)N)C(=O)N[C@H](C(=O)N[C@@H](CCCCN)C(=O)N[C@@H](CC(=O)O)C(=O)N[C@@H](Cc1ccccc1)C(=O)N[C@@H](CC(C)C)C(=O)N[C@@H](CCCNC(=N)N)C(=O)N[C@@H](CC(N)=O)C(=O)N[C@@H](CC(C)C)C(=O)N[C@H](C(=O)N1CCC[C@H]1C(=O)N[C@@H](CCCNC(=N)N)C(=O)N[C@H](C(=O)N[C@@H](CCC(=O)O)C(=O)N[C@@H](CO)C(=O)O)[C@@H](C)O)C(C)C)[C@@H](C)CC)C(C)C)[C@@H](C)CC [LL-37, reference compound]","Bd inhibition score (percent inhibition), mean",synthesized peptide 15.625 μg/mL,-44.2834%
same,"Bd inhibition score (percent inhibition), mean",synthesized peptide 31.25 μg/mL,-68.3967%
same,"Bd inhibition score (percent inhibition), mean",synthesized peptide 62.5 μg/mL,-39.8112%
same,"Bd inhibition score (percent inhibition), mean",synthesized peptide 125 μg/mL,-55.6571%
same,"Bd inhibition score (percent inhibition), mean",synthesized peptide 250 μg/mL,-81.8611%
same,"Bd inhibition score (percent inhibition), mean",synthesized peptide 500 μg/mL,-318.384%
